Measured values: patent publication US20190167771A1, “CONTROL ANGIOGENESIS BY REGULATING PHOSPHORYLATION OF SERYL-tRNA SYNTHETASE (SerRS)” (The Scripps Research Institute, priority 2016, published 2019)

How the values were obtained:
3B11 endothelial cells = test: Matrigel plug angiogenesis assay with stably transfected 3B11 cells; format: in vivo; settings: 3B11 cells stably transfected with mouse SerRS gene, C3H/HeJ mice, 14 days
Protocol: In FIG. 4A, mouse 3B11 endothelial cells were stably transfected with mouse wild type SerRS or mutant SerRS and the expression of SerRS were examined by immunoblot with anti-SerRS antibody and quantified by the density of the bands. In FIGS. 4B-C, Matrigel plug angiogenesis assay was performed with stably transfected 3B11 cells in C3H/HeJ mice. Matrigel plugs (dash lines enclosed regions) excised 14 days after implantation were analyzed by immunohistochemistry for CD31 (FIG. 4B) and microvessel density was quantified (FIG. 4C) (n=10-15).
A total of 10^6 of stably transfected 3B11 cells were resuspended in 100 μl of DMEM medium supplemented with 10% FBS and then mixed with 200 μl of ice-cold matrigel (BD Biosciences, San Jose, Calif., USA) liquid on ice. The 300 μl of cell and matrigel mixture was injected subcutaneously into a flank of C3H/HeJ mice (two injection sites per mouse and 5-6 mice in each group) (Jackson Laboratory). After inoculation for 14 days, the matrigel plugs were excised and frozen in Tissue-Tek® OCT compound for cryostat sectioning. All the mouse experiments were conducted according to the guidelines established by the Institutional Animal Care and Use Committee (IACUC) at The Scripps Research Institute, IACUC approval protocol number 13-0003.
(§1) 5-μm sections from freshly frozen tumor xenograft and matrigel plugs were treated with acetone and 3% H2O2 to block endogenous peroxidase. After 3-5 times wash and goat serum block, the sections were incubated with an anti-CD31 antibody (1:3000; Cell Signaling Technology) overnight at 4° C. The blood vessels were counted in 5-10 random viable fields (120×) in tumor xenograft samples and microvessel density in matrigel plugs was quantified by measuring the CD31 staining density using Image J software. To detect the hypoxia, we incubated the slides with anti-HIF1α antibody (1:100; Novus Biologicals).
A matrigel plug angiogenesis assay was used. […] At the same time, the microvasculature in the plug was evaluated by CD31 immuno-staining.

MDA-MB-231 cells = test: MDA-MB-231 tumor xenograft model, tumor angiogenesis and growth; format: in vivo, mouse; settings: for tumor angiogenesis (CD31 staining): MDA-MB-231 stably transfected with human SerRS gene (~10-fold overexpression), NSG mice, two weeks
From the text: In FIG. 5A, human breast cancer cells MDA-MB-231 were stably transfected with human wild type (SerRS^WT) and mutant SerRS (SerRS^AA, SerRS^DD). The expression of SerRS was monitored by immunoblot. In FIGS. 5B-C, the engineered MDA-MB-231 cells (10^6 per mouse) were implanted into mouse fat pad in mammal glands to form tumor xenografts. 14 days later, tumor xenografts were excised and subjected to immunohistochemistry for CD31 (FIG. 5B) and subsequent quantification of blood vessels (FIG. 5C) (n=5-6). In FIGS. 5D-F, MDA-MB-231 cells (10^6 per mouse) stably transfected with SerRS^WT, SerRS^AA, HIF1-specific shRNA (HIF^KD), both SerRS^AA and HIF^KD or empty vector were implanted into mouse fat pad in mammal glands. The sizes of the tumor xenografts were measured until the mice were sacrificed on 35 days (FIG. 5D) and the tumor angiogenesis was measured by immunohistochemistry for CD31 (FIG. 5E) and VEGFA (FIG. 5F) (n=4-10). Scale bars represent 100 μm.
[…] MDA-MB-231 cells stably transfected with vectors expressing wild type human SerRS, SerRS^S101A/S241A, or SerRS^S101D/S241D were subcutaneously injected into the mammal glands of 6-8-week-old female NOD.Cg-Prkdc^scidIl2rg^tmJWjl/SzJ mice (six mice in each group) (Jackson Laboratory). 14 days after injection, the tumor xenograft were separated from mice and frozen in Tissue-Tek® OCT compound for cryostat sectioning.
as §1
This example describes experiments studying the activity of SerRS^S101A/S241A and the effect of SerRS phosphorylation in hypoxia-induced angiogenesis in mammal.
Because hypoxia-induced angiogenesis is critical for solid tumor growth, experiments were performed to determine if hypoxia-induced SerRS phosphorylation/inactivation is important for tumor angiogenesis. Human breast cancer cells MDA-MB-231 were stably transfected with human SerRS^WT, SerRS^S101A/S241A, or SerRS^S101D/S241D gene to give high levels of overexpression (˜10-fold) compare to that of the endogenous protein (FIG. 4D). The engineered cells were implanted subcutaneously into the mammal glands of immune deficient NOD scid gamma (NSG) mice. Two weeks later, the vasculature in the tumor xenografts were examined by CD31 staining (FIGS. 4E and 4F). […]

Row | Substance | microvessel formation in the matrigel plug (CD31) (3B11 endothelial cells) | tumor angiogenesis (CD31 staining) (MDA-MB-231 cells) | angiogenesis and tumor growth compared with HIF-1 knockdown (MDA-MB-231 cells; murine model of triple negative human breast cancer, overexpression)
1 | SerRS^S101A/S241A: phosphorylation-deficient human SerRS double mutant, serine 101 and 241 to alanine, SEQ ID NO: 4 (mouse version in matrigel assay) | strongly suppressed the microvessel formation | much stronger inhibition of angiogenesis compared to SerRS^WT | suppress angiogenesis and tumor growth much more robustly than the knockdown of HIF-1
2 | SerRS^S101D/S241D: SerRS with double substitutions of S101 and S241 with aspartic acid, mimics the phosphorylated SerRS | did not suppress microvascular formation | strong activity in promoting tumor angiogenesis | 
3 | SerRS^WT: wildtype human seryl-tRNA synthetase protein, SEQ ID NO: 1 (mouse wild type used in the 3B11 matrigel assay) | did not suppress microvascular formation | suppressed tumor angiogenesis | 
